Earlier results, collected in paper PMC9851200, “Multiparameter phenotypic screening for endogenous TFEB and TFE3 translocation identifies novel chemical series modulating lysosome function” (Autophagy, 2022).

Tests used:
Parameters in all cases: method as in original PKIS2 published data
[1] = target: kinases (KINOMEscan panel) (Homo sapiens, UniProt Q13233); conditions: MAP3K1; Published KINOMEscan; ref original PKIS2 published data; cited from earlier work
[2] = target: kinases (KINOMEscan panel) (Homo sapiens, UniProt P35916); conditions: FLT4; Published KINOMEscan; ref original PKIS2 published data; cited from earlier work
Sequence of kinases (KINOMEscan panel) (Homo sapiens, UniProt P35916) (P35916 25-1363): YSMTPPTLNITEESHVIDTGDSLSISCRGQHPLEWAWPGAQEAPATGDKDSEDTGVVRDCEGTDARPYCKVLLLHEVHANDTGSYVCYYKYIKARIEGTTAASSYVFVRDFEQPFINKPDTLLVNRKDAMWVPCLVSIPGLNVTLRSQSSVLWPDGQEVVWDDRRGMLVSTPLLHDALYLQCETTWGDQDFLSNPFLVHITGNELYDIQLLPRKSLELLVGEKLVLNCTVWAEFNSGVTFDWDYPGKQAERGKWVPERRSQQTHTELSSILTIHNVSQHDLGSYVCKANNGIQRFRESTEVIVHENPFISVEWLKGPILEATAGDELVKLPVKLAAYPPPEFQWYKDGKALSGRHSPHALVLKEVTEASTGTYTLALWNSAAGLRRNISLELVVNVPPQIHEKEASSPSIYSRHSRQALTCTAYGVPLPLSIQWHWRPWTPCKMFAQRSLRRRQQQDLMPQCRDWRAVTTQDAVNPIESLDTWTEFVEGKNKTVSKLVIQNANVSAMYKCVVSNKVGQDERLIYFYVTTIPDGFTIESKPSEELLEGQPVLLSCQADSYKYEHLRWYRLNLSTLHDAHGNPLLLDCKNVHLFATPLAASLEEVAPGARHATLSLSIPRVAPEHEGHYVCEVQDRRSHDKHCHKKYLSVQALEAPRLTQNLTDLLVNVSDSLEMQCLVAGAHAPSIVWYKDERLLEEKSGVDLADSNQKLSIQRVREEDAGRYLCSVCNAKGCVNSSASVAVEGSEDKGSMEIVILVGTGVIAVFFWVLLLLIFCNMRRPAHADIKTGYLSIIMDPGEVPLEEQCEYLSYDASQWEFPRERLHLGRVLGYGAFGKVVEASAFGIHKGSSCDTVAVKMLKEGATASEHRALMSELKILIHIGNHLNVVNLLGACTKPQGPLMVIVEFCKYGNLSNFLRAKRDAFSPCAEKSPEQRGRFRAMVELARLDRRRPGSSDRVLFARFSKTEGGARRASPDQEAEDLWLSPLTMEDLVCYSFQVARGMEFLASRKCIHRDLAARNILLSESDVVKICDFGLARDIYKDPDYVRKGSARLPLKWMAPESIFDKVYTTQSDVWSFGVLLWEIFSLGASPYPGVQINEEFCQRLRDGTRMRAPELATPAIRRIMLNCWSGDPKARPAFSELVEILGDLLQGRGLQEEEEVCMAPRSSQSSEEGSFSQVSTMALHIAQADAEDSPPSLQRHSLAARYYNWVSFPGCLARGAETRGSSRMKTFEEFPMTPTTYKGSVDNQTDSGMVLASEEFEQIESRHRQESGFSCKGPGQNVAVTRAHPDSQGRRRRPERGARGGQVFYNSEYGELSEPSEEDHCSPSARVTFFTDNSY

[3] = target: kinases (KINOMEscan panel) (Homo sapiens, UniProt Q96GD4); conditions: kinase AURKB; Published KINOMEscan; ref original PKIS2 published data; cited from earlier work
Sequence of kinases (KINOMEscan panel) (Homo sapiens, UniProt Q96GD4) (Q96GD4 whole entry): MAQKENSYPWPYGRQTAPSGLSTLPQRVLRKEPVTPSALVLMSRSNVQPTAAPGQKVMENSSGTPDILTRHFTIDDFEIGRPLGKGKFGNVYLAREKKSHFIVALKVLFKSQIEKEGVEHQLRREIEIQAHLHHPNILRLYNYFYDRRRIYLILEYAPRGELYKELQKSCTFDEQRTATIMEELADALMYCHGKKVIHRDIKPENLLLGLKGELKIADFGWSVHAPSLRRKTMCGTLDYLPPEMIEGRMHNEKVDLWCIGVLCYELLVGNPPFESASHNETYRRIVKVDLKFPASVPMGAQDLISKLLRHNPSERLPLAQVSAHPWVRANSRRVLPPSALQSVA

[4] = target: kinases (KINOMEscan panel) (Homo sapiens, UniProt Q13555); conditions: CAMK2G; Published KINOMEscan; ref original PKIS2 published data; cited from earlier work
Sequence of kinases (KINOMEscan panel) (Homo sapiens, UniProt Q13555) (Q13555 whole entry): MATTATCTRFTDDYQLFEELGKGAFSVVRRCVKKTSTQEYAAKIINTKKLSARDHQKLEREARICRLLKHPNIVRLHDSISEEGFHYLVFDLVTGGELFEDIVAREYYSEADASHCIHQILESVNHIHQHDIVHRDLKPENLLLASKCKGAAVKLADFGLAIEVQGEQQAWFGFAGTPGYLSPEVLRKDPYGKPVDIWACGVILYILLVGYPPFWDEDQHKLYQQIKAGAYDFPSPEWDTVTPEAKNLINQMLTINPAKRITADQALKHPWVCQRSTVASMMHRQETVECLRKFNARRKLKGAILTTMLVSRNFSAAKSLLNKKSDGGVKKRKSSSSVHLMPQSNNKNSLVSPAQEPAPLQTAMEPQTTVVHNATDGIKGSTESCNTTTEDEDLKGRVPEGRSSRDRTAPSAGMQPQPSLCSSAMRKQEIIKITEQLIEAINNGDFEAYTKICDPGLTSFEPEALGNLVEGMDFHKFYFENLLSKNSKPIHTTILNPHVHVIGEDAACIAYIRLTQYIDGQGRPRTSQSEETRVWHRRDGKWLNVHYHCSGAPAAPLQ

[5] = target: T1, kinases (KINOMEscan panel) (Homo sapiens, UniProt Q16566); conditions: CAMK4; Published KINOMEscan; ref original PKIS2 published data; cited from earlier work
T1 sequence (Q16566 1-473): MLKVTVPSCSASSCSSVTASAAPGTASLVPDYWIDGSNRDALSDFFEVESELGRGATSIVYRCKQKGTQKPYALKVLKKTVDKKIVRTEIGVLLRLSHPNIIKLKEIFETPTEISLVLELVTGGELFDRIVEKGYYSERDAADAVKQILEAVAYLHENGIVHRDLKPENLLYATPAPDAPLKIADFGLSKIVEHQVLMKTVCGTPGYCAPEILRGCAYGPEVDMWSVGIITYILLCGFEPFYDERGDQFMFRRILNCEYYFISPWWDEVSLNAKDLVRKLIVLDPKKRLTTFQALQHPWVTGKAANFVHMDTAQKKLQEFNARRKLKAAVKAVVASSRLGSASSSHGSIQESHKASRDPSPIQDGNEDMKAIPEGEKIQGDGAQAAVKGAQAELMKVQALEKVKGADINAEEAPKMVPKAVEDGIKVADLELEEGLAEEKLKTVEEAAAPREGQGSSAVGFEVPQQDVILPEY

[6] = target: kinases (KINOMEscan panel) (Homo sapiens, UniProt P00533); conditions: kinase EGFR; Published KINOMEscan; ref original PKIS2 published data; cited from earlier work
Sequence of kinases (KINOMEscan panel) (Homo sapiens, UniProt P00533) (P00533 25-1210): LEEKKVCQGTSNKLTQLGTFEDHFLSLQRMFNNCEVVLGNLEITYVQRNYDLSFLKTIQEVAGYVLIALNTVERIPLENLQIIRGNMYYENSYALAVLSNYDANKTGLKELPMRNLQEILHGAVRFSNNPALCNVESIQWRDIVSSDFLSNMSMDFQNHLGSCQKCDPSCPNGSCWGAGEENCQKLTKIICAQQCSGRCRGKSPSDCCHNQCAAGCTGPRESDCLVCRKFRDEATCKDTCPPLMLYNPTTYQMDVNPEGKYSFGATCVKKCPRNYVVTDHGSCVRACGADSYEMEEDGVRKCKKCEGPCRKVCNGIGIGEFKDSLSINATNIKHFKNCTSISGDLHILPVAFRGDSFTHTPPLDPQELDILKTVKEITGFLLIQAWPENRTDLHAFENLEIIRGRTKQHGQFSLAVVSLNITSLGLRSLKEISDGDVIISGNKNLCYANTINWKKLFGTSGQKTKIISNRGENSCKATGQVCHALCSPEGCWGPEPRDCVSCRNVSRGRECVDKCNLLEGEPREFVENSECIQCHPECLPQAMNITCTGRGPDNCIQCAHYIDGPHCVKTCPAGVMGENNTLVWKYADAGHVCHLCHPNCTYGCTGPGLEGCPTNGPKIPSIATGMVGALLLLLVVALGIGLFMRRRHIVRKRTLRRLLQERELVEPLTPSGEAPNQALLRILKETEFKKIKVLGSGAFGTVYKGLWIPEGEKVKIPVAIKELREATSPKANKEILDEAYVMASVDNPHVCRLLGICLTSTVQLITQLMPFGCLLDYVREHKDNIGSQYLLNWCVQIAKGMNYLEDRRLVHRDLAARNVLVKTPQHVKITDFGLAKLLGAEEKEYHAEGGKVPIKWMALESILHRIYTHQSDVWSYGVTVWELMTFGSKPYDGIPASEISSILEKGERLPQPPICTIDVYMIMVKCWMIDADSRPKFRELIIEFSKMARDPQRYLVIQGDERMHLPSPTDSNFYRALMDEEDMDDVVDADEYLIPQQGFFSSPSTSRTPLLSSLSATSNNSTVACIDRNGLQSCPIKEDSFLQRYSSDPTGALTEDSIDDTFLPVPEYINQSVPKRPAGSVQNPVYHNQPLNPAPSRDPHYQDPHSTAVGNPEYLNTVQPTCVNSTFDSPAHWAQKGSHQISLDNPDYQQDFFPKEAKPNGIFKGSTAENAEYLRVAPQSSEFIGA

[7] = target: T2, kinases (KINOMEscan panel) (Homo sapiens, UniProt O15146); conditions: MUSK; Published KINOMEscan; ref original PKIS2 published data; cited from earlier work
T2 sequence (O15146 24-869): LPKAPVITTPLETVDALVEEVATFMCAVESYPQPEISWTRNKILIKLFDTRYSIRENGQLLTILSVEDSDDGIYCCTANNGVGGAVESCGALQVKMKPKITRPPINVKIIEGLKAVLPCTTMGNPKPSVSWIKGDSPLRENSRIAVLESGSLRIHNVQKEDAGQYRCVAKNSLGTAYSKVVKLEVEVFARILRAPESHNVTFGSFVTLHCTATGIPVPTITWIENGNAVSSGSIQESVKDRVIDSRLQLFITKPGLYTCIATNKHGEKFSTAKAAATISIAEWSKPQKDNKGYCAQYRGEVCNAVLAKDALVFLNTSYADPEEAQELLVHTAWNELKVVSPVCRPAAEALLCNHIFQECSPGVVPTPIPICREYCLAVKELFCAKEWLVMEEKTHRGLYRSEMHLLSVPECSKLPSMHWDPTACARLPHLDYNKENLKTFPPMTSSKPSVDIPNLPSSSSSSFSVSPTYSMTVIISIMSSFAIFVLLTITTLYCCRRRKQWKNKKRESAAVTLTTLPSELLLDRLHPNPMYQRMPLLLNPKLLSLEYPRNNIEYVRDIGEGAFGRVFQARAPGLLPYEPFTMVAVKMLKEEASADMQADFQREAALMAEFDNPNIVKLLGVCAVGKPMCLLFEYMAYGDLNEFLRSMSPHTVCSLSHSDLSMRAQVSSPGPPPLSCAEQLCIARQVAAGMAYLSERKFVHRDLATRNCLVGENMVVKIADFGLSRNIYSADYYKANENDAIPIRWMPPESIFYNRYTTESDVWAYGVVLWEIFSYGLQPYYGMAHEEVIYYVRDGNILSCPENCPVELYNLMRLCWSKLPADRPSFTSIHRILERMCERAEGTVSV

[8] = target: T3, kinases (KINOMEscan panel) (Homo sapiens, UniProt Q9NRH2); conditions: kinase SNRK; Published KINOMEscan; ref original PKIS2 published data; cited from earlier work
T3 sequence (Q9NRH2 1-765): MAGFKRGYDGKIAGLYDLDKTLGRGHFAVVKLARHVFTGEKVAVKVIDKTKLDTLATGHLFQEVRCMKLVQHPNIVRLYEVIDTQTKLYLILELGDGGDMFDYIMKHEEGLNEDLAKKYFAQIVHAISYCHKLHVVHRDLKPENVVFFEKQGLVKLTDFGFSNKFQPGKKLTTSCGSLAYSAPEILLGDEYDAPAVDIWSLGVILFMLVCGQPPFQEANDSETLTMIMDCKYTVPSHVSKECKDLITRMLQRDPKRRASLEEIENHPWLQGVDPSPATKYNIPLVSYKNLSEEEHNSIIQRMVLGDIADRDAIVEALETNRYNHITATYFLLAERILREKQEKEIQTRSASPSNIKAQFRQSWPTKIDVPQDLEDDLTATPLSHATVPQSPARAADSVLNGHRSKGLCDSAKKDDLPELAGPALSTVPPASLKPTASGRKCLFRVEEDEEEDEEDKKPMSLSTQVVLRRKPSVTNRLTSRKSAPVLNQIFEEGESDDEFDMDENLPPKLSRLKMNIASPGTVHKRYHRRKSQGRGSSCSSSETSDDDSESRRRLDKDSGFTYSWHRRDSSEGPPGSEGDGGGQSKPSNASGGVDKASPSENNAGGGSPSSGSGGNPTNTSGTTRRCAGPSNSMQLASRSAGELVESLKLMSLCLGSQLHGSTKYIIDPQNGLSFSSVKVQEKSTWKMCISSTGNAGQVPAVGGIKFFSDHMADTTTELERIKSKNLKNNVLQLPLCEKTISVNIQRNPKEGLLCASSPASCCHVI

[9] = target: kinases (KINOMEscan panel) (Homo sapiens, UniProt Q9UKE5); conditions: TNIK; Published KINOMEscan; ref original PKIS2 published data; cited from earlier work

Sequence of kinases (KINOMEscan panel) (Homo sapiens, UniProt Q13233) (Q13233 whole entry): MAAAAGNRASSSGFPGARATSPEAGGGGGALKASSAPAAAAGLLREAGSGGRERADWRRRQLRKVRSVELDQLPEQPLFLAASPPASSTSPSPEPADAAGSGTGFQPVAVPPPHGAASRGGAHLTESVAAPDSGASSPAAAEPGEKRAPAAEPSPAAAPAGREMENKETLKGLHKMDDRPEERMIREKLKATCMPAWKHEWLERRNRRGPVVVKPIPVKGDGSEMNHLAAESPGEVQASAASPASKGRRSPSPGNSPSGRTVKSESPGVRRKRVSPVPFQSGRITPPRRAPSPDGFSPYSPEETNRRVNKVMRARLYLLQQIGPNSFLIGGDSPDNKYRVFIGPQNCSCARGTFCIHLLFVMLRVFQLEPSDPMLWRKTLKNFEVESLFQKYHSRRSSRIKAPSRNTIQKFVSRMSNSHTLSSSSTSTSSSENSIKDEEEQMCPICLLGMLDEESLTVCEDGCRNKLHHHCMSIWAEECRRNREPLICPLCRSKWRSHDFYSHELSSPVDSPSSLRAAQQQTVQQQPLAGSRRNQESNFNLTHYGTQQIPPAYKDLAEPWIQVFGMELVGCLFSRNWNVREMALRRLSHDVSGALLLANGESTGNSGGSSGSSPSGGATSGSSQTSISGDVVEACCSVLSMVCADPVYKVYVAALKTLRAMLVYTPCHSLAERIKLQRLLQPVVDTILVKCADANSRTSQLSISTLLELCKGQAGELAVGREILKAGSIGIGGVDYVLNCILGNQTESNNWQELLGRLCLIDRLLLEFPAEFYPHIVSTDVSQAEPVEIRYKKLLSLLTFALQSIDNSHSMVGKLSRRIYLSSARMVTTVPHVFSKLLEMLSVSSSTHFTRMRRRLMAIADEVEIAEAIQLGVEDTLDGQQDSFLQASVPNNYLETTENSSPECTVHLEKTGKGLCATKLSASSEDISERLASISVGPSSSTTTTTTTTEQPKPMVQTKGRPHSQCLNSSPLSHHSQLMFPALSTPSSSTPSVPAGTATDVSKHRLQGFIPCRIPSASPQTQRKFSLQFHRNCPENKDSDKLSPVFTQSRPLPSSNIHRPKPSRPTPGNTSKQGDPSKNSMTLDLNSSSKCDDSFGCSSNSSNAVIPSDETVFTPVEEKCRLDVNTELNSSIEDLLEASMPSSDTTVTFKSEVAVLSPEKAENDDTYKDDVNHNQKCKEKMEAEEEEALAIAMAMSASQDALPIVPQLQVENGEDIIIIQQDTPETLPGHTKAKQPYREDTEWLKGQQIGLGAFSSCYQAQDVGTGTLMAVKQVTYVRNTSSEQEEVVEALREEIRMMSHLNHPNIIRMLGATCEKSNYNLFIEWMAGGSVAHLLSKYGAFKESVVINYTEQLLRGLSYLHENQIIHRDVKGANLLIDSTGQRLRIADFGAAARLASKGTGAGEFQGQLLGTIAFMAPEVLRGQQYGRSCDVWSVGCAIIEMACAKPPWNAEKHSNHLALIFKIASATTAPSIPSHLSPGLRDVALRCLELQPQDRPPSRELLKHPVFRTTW

Question: Which “KINOMEscan MAP3K1” value [1] does the source give for Cc1cccc(-c2nc(Nc3ccncc3)c3ccccc3n2)n1 [NK215] here?
Answer: 0

Question: What about the “KINOMEscan FLT4” value [2] of the same compound?
Answer: 1

Question: And the “KINOMEscan AURKB” value [3]?
Answer: 10

Question: And the “KINOMEscan CAMK2G” value [4]?
Answer: 0

Question: And the “KINOMEscan CAMK4” value [5]?
Answer: 47

Question: And the “KINOMEscan EGFR” value [6]?
Answer: 6

Question: What about the “KINOMEscan MUSK” value [7] of the same compound?
Answer: 17

Question: And the “KINOMEscan SNRK” value [8]?
Answer: 0

Question: What about the “KINOMEscan TNIK” value [9] of the same compound?
Answer: 29
